According to patent US6464991B1, “Oat lipid based surfactants and derivatives and process for preparing same” (Finetex, Inc., priority 1999, dated 2002):

Tests used:
[1] = test system: Skin Tissue Model; experiment: Dermal irritation, Mat-Tek in-vitro Skin Tissue Model (non-animal); format: cell-based
From the text: (§1) These studies were done using non-animal test protocols. Skin Tissue Model and Ocular Tissue Model by Mat-Tek Corporation in-vitro systems were used for dermal and ocular irritation studies.

[2] = test system: Ocular Tissue Model; experiment: Ocular irritation, Mat-Tek in-vitro Ocular Tissue Model (non-animal); format: cell-based
From the text: as §1

nonylphenol 10 EO Ethoxylate [Positive Control]
Dermal Tox Irritation Ratings/Classifications [1]: Moderate to mild range
Ocular Tox Irritation Ratings/Classifications [2]: Moderate to mild range
